Measurements from patent publication US11612599B2, “Glycosidase inhibitors” (Asceneuron SA, priority 2016, dated 2023).

Molecular target: Human O-GlcNAcase (His-Tagged hOGA) (Homo sapiens (Human), UniProt O60502)
Assay: Human O-GlcNAcase enzyme inhibition assay
Assay type: biochemical
Conditions: OGA enzyme inhibition assay; activity range classes defined in μM
Method: Then, 20 nM of His-Tagged hOGA and 10 μM of FL-GlcNAc (Fluorescein mono-beta-D-(2-deoxy-2-N-acetyl) glucopyranoside; Marker Gene Technologies Inc, M1485) were added to the 384-well plate for a final volume of 20 μl.

Sequence of Human O-GlcNAcase (His-Tagged hOGA) (O60502 whole entry): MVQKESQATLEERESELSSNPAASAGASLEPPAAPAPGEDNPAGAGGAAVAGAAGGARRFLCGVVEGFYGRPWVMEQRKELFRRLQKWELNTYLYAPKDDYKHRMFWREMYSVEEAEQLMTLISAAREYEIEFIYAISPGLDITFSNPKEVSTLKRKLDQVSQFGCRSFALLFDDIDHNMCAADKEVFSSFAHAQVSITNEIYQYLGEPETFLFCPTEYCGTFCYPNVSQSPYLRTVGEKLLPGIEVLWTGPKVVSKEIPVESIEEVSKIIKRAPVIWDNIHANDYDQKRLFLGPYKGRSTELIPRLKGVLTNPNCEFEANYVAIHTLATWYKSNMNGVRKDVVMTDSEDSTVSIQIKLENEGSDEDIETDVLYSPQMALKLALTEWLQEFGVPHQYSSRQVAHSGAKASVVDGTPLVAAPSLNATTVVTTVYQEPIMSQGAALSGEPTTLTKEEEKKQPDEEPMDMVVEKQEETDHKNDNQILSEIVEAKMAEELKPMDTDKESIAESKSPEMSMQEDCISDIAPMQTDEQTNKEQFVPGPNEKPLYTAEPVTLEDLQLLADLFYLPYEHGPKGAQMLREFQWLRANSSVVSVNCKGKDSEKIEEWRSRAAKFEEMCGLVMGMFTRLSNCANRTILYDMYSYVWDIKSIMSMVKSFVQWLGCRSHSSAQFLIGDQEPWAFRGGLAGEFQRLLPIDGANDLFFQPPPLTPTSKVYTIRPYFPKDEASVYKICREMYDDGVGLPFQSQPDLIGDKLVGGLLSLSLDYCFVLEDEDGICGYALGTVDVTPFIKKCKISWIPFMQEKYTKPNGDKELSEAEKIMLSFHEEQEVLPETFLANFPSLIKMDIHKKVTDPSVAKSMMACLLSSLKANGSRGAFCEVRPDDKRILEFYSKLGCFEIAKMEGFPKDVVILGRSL

Compound	IC50
Cc1ncc2ccc(N3CCN(C(C)c4ccc5c(c4)OCC5)CC3)cn12 (racemic) [Example 1, 6-(4-(1-(2,3-dihydrobenzofuran-6-yl)ethyl)piperazin-1-yl)-3-methylimidazo[1,5-a]pyridine]	< 0.05 µM
CC(c1ccc2c(c1)OCC2)N1CCN(c2ccc3c(c2)C(=O)NC3)CC1 (racemic) [Example 2, 6-(4-(1-(2,3-dihydrobenzofuran-6-yl)ethyl)piperazin-1-yl)isoindolin-1-one]	< 0.05 µM
CC(c1ccc2c(c1)OCC2)N1CCN(c2cc3c(cn2)NC(=O)CO3)CC1 (racemic) [Example 3, 7-(4-(1-(2,3-dihydrobenzofuran-6-yl)ethyl)piperazin-1-yl)-2H-pyrido[4,3-b][1,4]oxazin-3(4H)-one]	< 0.05 µM
CC(c1ccc2nccnc2c1)N1CCN(c2ccc3c(c2)C(=O)NC3)CC1 (racemic) [Example 4, 6-(4-(1-(quinoxalin-6-yl)ethyl)piperazin-1-yl)isoindolin-1-one]	0.05 to 0.2 µM
CC(c1ccc2c(c1)OCC2)N1CCN(c2nc3c(s2)C(=O)NCC3)CC1 (racemic) [Example 12, 2-(4-(1-(2,3-dihydrobenzofuran-6-yl)ethyl)piperazin-1-yl)-6,7-dihydrothiazolo[5,4-c]pyridin-4(5H)-one]	< 0.05 µM
C[C@H](c1ccc2c(c1)OCC2)N1CCN(c2nc3c(s2)CNCC3)CC1 (single isomer, unassigned) [Example 18]	1 to 10 µM
